The record followed here is BindingDB's records for patent US20250313563 (The Broad Institute, 2025).

The structures appear in SMILES notation. pIC50: −log10 of the molar value. “And” between values parts separate entries of the source, which are not always exact repeats. Equal values may be shown once.

Assay [1] has as its target Glycogen synthase kinase-3 alpha (Homo sapiens, UniProt P49840). Briefly: TR-FRET Assay. In a few lines: (§1)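 Kinase activity, measured after a 30-minute compound preincubation, was stopped with EDTA and quantified by TR-FRET using a Tb-labelled pSer641 antibody paired with streptavidin-d2.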
Background: TR-FRET usually uses a lanthanide donor and a delayed reading to cut background.

Assay [2] has as its target Glycogen synthase kinase-3 beta (Homo sapiens, UniProt P49841). In words: TR-FRET Assay. The gist of the method:
as §1

Chain of Glycogen synthase kinase-3 beta (P49841 whole entry): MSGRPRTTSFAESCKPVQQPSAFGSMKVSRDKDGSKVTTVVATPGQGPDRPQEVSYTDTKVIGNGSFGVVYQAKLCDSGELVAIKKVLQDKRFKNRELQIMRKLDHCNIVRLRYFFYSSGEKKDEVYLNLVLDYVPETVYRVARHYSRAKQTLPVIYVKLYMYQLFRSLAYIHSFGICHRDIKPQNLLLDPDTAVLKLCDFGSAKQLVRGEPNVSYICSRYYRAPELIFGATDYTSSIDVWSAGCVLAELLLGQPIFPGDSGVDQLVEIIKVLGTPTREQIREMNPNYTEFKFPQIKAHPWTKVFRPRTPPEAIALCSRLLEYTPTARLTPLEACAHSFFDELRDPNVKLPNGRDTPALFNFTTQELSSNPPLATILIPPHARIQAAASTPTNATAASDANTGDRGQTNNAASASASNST
Chain of Glycogen synthase kinase-3 alpha (P49840 whole entry): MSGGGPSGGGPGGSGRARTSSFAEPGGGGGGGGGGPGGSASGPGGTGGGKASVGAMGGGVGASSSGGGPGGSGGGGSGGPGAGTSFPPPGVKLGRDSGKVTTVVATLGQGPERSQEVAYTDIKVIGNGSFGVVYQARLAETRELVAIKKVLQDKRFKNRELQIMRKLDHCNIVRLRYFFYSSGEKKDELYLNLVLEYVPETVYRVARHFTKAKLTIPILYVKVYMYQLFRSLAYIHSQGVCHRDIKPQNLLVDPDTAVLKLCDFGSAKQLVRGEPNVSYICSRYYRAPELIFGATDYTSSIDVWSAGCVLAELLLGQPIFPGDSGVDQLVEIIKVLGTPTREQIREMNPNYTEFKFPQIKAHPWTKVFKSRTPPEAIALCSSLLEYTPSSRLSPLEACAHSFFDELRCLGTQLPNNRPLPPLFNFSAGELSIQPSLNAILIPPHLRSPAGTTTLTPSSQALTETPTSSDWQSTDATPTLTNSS

For orientation: pIC50 means the IC50 on a negative log10 scale, so that one unit is a factor of ten. A low value points to a large IC50. In the case of `CC1(C)CC(=O)C2=C(C1)NC1=C(CN=N1)[C@]21CCOC2(CCC2)C1` [US20250313563, Compound 897756], the pIC50 in assay [1] and in assay [2] was 6.00 to 7.00 in each case.

Regarding `CC1(C)CC(=O)C2=C(C1)NC1=C(CN=N1)[C@]21C[C@@]2(CCN(CC(F)(F)F)C2)C1` [US20250313563, Compound 913138], the pIC50 in assay [1] and in assay [2] was 6.00 to 7.00 in each case.

Consider `CC1(C)CC(=O)C2=C(C1)NC1=C(CN=N1)C21CCC(n2cnnc2)CC1` (stereo not drawn) [US20250313563, Compound 943894], for which the pIC50 in assay [1] was above 7.00; in assay [2], 6.00 to 7.00.

Turning to `CN(C)C(=O)c1ccc(S(=O)(=O)N2CCC3(CC2)C2=C(N=NC2)NC2=C3C(=O)CC(C)(C)C2)cc1` [US20250313563, Compound 945659], the pIC50 in assay [1] and in assay [2] was above 7.00 each time.

Turning to `CC[C@@]1(c2cccc(-c3ccncc3F)c2)C2=CN=NC2NC2=C1C(=O)NC(C)(C)C2` (stereo partly drawn) [US20250313563, Compound 947869], the pIC50 in assay [1] is above 7.00; in assay [2], > 7.00 and 5.30 to 6.00.

With `CC1(C)CC(=O)C2=C(C1)NC1=C(CN=N1)[C@@]21CCN(S(=O)(=O)c2ccccc2)C1` [US20250313563, Compound 951788], the pIC50 in assay [1] is > 7.00 and 6.00 to 7.00; in assay [2], > 7.00 and 5.30 to 6.00.

With `CC[C@@]1(c2cccc(-c3ccncc3C)c2)C2=C(CC(C)(C)CC2=O)NC2N=NC(C(F)(F)F)=C21` (stereo partly drawn) [US20250313563, Compound 947325], the pIC50 in assay [1] is above 7.00; in assay [2], 6.00 to 7.00.

In the case of `CC[C@]1(c2cccc(C(F)(F)F)c2)C2=CN=NC2NC2=C1C(=O)CC(C)(C)C2` (stereo partly drawn) [US20250313563, Compound 790754], the pIC50 is 6.00 to 7.00 in assay [1] and 5.30 to 6.00 in assay [2].

With `CCC1(c2cccc(N(C)c3ncccn3)c2)C2=C(CC(C)(C)NC2=O)NC2N=NC(F)=C21` (stereo not drawn) [US20250313563, Compound 949172], the pIC50 was > 7.00 and 6.00 to 7.00 in assay [1]; > 7.00 and 5.30 to 6.00 in assay [2].

`CC[C@]1(c2cccc(N(C)c3nccc(OC)n3)c2)C2=CN=NC2NC2=C1C(=O)CC(C)(C)C2` (stereo partly drawn) [US20250313563, Compound 947336]: the pIC50 in assay [1] was > 7.00 and 6.00 to 7.00; in assay [2], > 7.00 and 5.30 to 6.00.

With `CCC1(c2cccc(C(C)C)c2)C2=CN=NC2NC2=C1C(=O)CC(C)(C)C2` (stereo not drawn) [US20250313563, Compound 801322], the pIC50 in assay [1] was above 7.00; in assay [2], 6.00 to 7.00.

As to `CCC1(c2cccc(-c3cnn(C)c3)c2)C2=CN=NC2NC2=C1C(=O)CC(C)C2` (stereo not drawn) [US20250313563, Compound 816752], the pIC50 in assay [1] is above 7.00; in assay [2], 5.30 to 6.00.

Take `CC[C@]1(c2cccc(-c3ccnc(C)c3)c2)C2=CN=NC2NC2=C1C(=O)[C@@H](F)C(C)(C)C2` (stereo partly drawn) [US20250313563, Compound 945486]: the pIC50 is 5.30 to 6.00 in assay [1] and below 5.30 in assay [2].

As for `Cc1ccc(C(=O)N2CC3(C2)CC2(CO3)C3=C(N=NC3)NC3=C2C(=O)CC(C)(C)C3)cc1` (stereo not drawn) [US20250313563, Compound 947290], the pIC50 in assay [1] and in assay [2] was above 7.00 throughout.

Consider `CC1(C)CC(=O)C2=C(C1)NC1=C(CN=N1)C21CC2(COC2)C1` [US20250313563, Compound 912168], for which the negative logarithm of the IC50 (pIC50) in assay [1] and in assay [2] was below 5.30 throughout.

With `CC[C@]1(c2cccc(-c3ccncc3C)c2)C2=C(CC(C)(C)NC2=O)NC2N=NC(C)=C21` (stereo partly drawn) [US20250313563, Compound 947409], the pIC50 was 5.30 to 6.00 in assay [1] and below 5.30 in assay [2].

As for `CC1(C)CC(=O)C2=C(C1)NC1=C(CN=N1)[C@@]21CCCOCC1` [US20250313563, Compound 874536], the negative logarithm of the IC50 (pIC50) was 6.00 to 7.00 in assay [1] and 5.30 to 6.00 in assay [2].

Take `CC[C@@]1(c2cccc(C(F)(F)F)c2)C2=CN=NC2NC2=C1C(=O)N(C)C[C@H]2C` (stereo partly drawn) [US20250313563, Compound 883982]: the pIC50 in assay [1] and in assay [2] was below 5.30 throughout.

In the case of `CC[C@@]1(c2ccccc2)C2=CN=NC2NC2=C1C(=O)[C@H](F)C(C)(C)C2` (stereo partly drawn) [US20250313563, Compound 957404], the pIC50 in assay [1] and in assay [2] was below 5.30 each time.
